Test: wn = mass fraction of the nth substance listed
Details: for viscosity / mass density: 101 kPa, Liquid; for viscosity: Capillary tube (Ostwald / Ubbelohde) method; for mass density: Pycnometric method; for surface tension liquid-gas: Pendant drop shape

CN(CCO)CCO [N-methyldiethanolamine] + O
Details | mass density, 288.15 K [kg/m3] | mass density, 313.15 K [kg/m3] | surface tension liquid-gas, 313.15 K [mN/m] | viscosity, 288.15 K [mPa·s] | viscosity, 313.15 K [mPa·s]
w1 = 0.1 | 1007.1 | 1001.1 | 58.71 | 1.711 | 0.905
w1 = 0.2 | 1017.5 | 1008.1 | 54.68 | 2.631 | 1.312

Source: the NIST ThermoML archive (doi:10.1021/je101192x)
